According to PubChem BioAssay (NCI):
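Exposure lasted 48 hours, with cells grown in 96-well plates and compounds tested at five concentrations. The concentration for full growth arrest is given as TGI.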

Tests used:
Assay in all cases: NCI anticancer screen, dose series, 48 h
[1] = test system: A549 NSCLC
[2] = test system: CCRF-CEM leukemia
[3] = test system: DLD-1 colon
[4] = test system: HOP-92 NSCLC
[5] = test system: KM20L2 colon
[6] = test system: LXFL 529 NSCLC
[7] = test system: M19-MEL melanoma
[8] = test system: RXF-631 renal
[9] = test system: SNB-78 CNS
[10] = test system: ACHN renal
[11] = test system: DMS 114 small cell lung
[12] = test system: DMS 273 small cell lung
[13] = test system: HOP-18 NSCLC
[14] = test system: XF 498 CNS

SMILES	TGI [1] [µM]	TGI [2] [µM]	TGI [3] [µM]	TGI [4] [µM]	TGI [5] [µM]	TGI [6] [µM]	TGI [7] [µM]	TGI [8] [µM]	TGI [9] [µM]	TGI [10] [µM]	TGI [11] [µM]	TGI [12] [µM]	TGI [13] [µM]	TGI [14] [µM]
C/C(CC(=O)Nc1cc(C)ccc1C)=N\NC(=O)c1ccncc1	> 100	> 100	> 100	> 100	> 100	> 100	> 100	> 100	> 100					
O/N=C/c1ncccc1C1OCCO1	> 100	> 100	> 100	> 100	> 100	> 100	> 100		> 100	> 100	> 100	> 100	> 100	> 100
Cc1ccc(NC(=O)CC(=O)n2nc(C)c(N=Nc3ccccc3C(=O)O)c2C)cc1	> 100	> 100	> 100		> 100	> 100	> 100	> 100	> 100		> 100	> 100		> 100
O=C(NC12CC3CC(CC(F)(C3)C1)C2)c1ccccc1	> 100	> 100	> 100	> 100	> 100	> 100	> 100		> 100	> 100	> 100	> 100		> 100
O=C1c2ccccc2C(=O)c2c1cc(S(=O)(=O)O)c(O)c2O	> 100	> 100	> 100	> 100		> 100	> 100	> 100	> 100	> 100	> 100			32.6
NC(=S)N1N=C2c3ccccc3CC[C@@H]2[C@@H]1c1ccccc1	> 60.2	62.3	> 86.4	47.2	16.3	97.6	47.2	> 100	> 82	> 88.9	8.01	20.7	> 100	
CC1OC(OC2C(OC(=O)[C@]34CCC(C)(C)CC3C3=CCC5[C@@]6(C)C[C@H](O)[C@H](OC7OC(CO)C(O)C(O)C7N)[C@@](C)(C(=O)O)C6CC[C@@]5(C)C3(C)CC4)OCC(O)C2O)C(O)C(O)C1OC1OCC(O)C(O)C1O (some centres undefined)	> 100	> 100	> 100	> 100	> 100		> 100		> 100	> 100	> 100	> 100	> 100	
CCOC(=O)/C(=C\c1ccccc1)C(=O)O	> 100	> 100		> 100	> 100		> 100		> 100	> 100	> 100	> 100		> 100
Cc1cccc(C(C)C)c1NC(=O)/C(Cc1c([N+](=O)[O-])cccc1[N+](=O)[O-])=N/NC(=O)CC#N	> 100	> 100	> 100	> 100	> 100	> 100	> 100	> 100		> 100	> 100	> 100	> 100	
O=C(CCN(C(=O)O)S(=O)(=O)c1ccc(NC(=O)c2ccccc2)cc1)NC1CCCCC1	> 100	> 100	> 100	> 100	> 100	> 100	> 100		> 100	> 100	> 100	> 100	> 100	> 100
O=C1NC(=O)C(CCC(=O)c2ccc3ccccc3c2)C(=O)N1	> 100	> 100	> 100	> 100	> 100	> 100	> 100	> 100	> 100	> 100	> 100	> 100	> 100	> 100
